1 substance from publication PMC6337261, “Short Peptides with Uncleavable Peptide Bond Mimetics as Photoactivatable Caspase-3 Inhibitors” (Molecules, 2019) can be followed below.

The data set can be described thus: LC-MS analysis of probes before and after UV irradiation. It counts as physicochemical. The settings on record: irradiation at 365 nm, gradient 10% to 95% acetonitrile with 0.1% formic acid. As to the method: Compounds were irradiated with UV light of 365 nm for 30 min and after removal of the light source added to caspase-3. Residual caspase activity was measured by using a fluorescent caspase ABP as in our previous experiments above.
Although this points towards a cyclization rather than reaction with a water molecule, it is not clear whether it leads to a potent caspase inhibitor. […] Therefore, cyclization seemed improbable, as this would most likely lead to a shift in retention time. We hypothesized that irradiation could potentially lead to oxidation of a very small amount of the ψ(CH2NH) moiety with benzophenone as a photosensitizer, resulting in minute quantities of aldehydes that were not detected on LC-MS, but were sufficient for caspase-3 inhibition. Oxidation of secondary amines under influence of benzophenone has been reported before. […] Note that triazoles cannot undergo this transformation, further explaining their inactivity. The oxidation hypothesis was supported by an experiment in which ψ(CH2NH) peptides 14 and 15, not containing a benzophenone, were irradiated in the presence of 1 eq of spiked-in benzophenone (Figure 3G–I).
All materials were purchased from Sigma Aldrich GmbH (GmbH, Darmstadt, Germany), Carl Roth GmbH + Co. KG (Karlsruhe, Germany), Thermo Fischer Scientific Inc. (Dreieich, Germany), Rapp Polymere GmbH (Tübingen, Germany), Applichem GmbH (Darmstadt, Germany), VWR International GmbH (Darmstadt, Germany), Merck KGaA (Darmstadt, Germany), CreoSalus Inc. (Louisville, KY, USA), and Iris Biotech GmbH (Marktredwitz, Germany) and were used as received, unless otherwise noted. TLC was performed on pre-coated ALUGRAM SIL G plates with detection by a handheld UV lamp (254 nm) and subsequent staining with potassium permanganate, p-anisaldehyde, ninhydrin or cerium ammonium molybdate. LC-MS analysis was performed on a Thermo LCQ Fleet HPLC-MS/MS system using a gradient of 10% to 95% acetonitrile containing 0.1% formic acid. NMR spectra were recorded on a Bruker Avance DRX 400 spectrometer with tetramethylsilane as internal standard. High resolution ESI-FTMS was performed on a Thermo Scientific LTQ Orbitrap Velos Pro mass spectrometer.

Turning to “Hexynoyl-Asp-Glu-Val-Aspψ(CH2NH)-Ala-Bpa-NH2 [10a]”, the “Change of probe upon UV irradiation (LC-MS before and after)” value is reported as “did not show obvious changes”.
